Literature values, collected in the PKSmart pharmacokinetics tables (Seal et al. 2025).
Where a SMILES comes first, the peptide text is derived from it. [ ]: non-standard residue; d: D form. pGlu = O=C1CC[CH](C(=O)O)N1; Thz = O=C(O)[CH]1CSCN1

Experiment: Lombardo, Berellini, Obach 2018, Drug Metab Dispos 46:1466, doi 10.1124/dmd.118.082966
Conditions: human; for MRT / Vd / clearance / half-life: in vivo, iv; for fraction unbound: plasma

Row | SMILES | MRT [h] | Vd [L/kg] | clearance [mL/min/kg] | half-life [h] | fraction unbound
1 | COC(=O)C(c1ccccc1)[C@H]1CCCCN1 (some centres undefined) | 6.62 | 2.65 | 6.67 | 8 | 0.87
2 | NC(=O)c1cc[n+](CC2=C(C(=O)O)N3C(=O)C(NC(=O)C(c4ccccc4)S(=O)(=O)[O-])[C@H]3SC2)cc1 (some centres undefined) | 2.47 | 0.29 | 1.96 | 1.64 | –
3 | Cc1nc(C#Cc2ccnc(Cl)c2)c(C)n1-c1ccc(F)cc1 | 57.4 | 9.7 | 2.8 | 78.9 | 0.01
4 | COc1cc(Cc2cnc(N)nc2N)c2cc(Cc3c(C(=O)N(C)C)[nH]c4ccc(Cl)cc34)oc2c1OC | 11.3 | 5.06 | 7.49 | 44.5 | –
5 | CCC[C@@H]1CC(=O)N(C(CC)C(N)=O)C1 (some centres undefined) | 12.5 | 0.56 | 0.75 | 8.98 | 0.825
6 | CC[C@@]1(O)C(=O)OCc2c1cc1n(c2=O)Cc2c-1nc1ccc(O)cc1c2[Si](C)(C)C(C)(C)C | 1.3 | 0.47 | 6 | 1.4 | –
7 | CCN1CCN(C(=O)NC(C(=O)N[C@]2(OC)C(=O)N3C(C(=O)O)=C(CSc4nnnn4C)CS[C@@H]32)[C@H](C)O)C(=O)C1=O (some centres undefined) | 2.9 | 0.19 | 1.1 | 1.9 | –
8 | CC(=O)Oc1ccc2c3c1O[C@H]1[C@@H](OC(C)=O)C=C[C@H]4[C@@H](C2)N(C)CC[C@@]341 | 0.1 | 1.31 | 212 | 0.062 | –
9 | CN(C)c1ccc(O)c2c1C[C@H]1C[C@H]3[C@H](N(C)C)C(O)=C(C(N)=O)C(=O)[C@@]3(O)C(O)=C1C2=O | – | – | – | – | 0.005
10 | CC(C(=O)O)c1cccc(Oc2ccccc2)c1 (centres undefined) | 2.8 | 0.1 | 0.6 | 2.24 | 0.02
11 | CCCn1c(=O)[nH]c(=O)c2nc[nH]c21 | 2.6 | 0.63 | 4 | 1.8 | 0.55
12 | COc1ccccc1Oc1c(NS(=O)(=O)c2ccc(C)cn2)nc(-c2ccnc(-c3nnn[nH]3)c2)nc1OCCO | 0.4 | 0.23 | 10.5 | 2.6 | 0.02
13 | O=C(/C=C/c1ccccc1)NCCO | 1.93 | 0.11 | 0.99 | 1.35 | –
14 | CC(=O)C1CC[C@H]2[C@@H]3CC[C@@H]4C[C@H](O)CC[C@]4(C)[C@H]3CC[C@]12C (some centres undefined) | 1.5 | 2 | 22 | 4.7 | 0.01
15 | Cc1cc(=O)n(-c2ccccc2)[nH]1 | 2.65 | 0.23 | 1.42 | 2.36 | 0.89
16 | C[C@@H](c1cccnc1F)c1c(CCN(C)C)sc2ccccc12 | 10 | 5.73 | 10.4 | 15 | –
17 | O=C1CCC(C(=O)N2CSCC2C(=O)O)N1 (centres undefined) ([pGlu]-[Thz]-OH; configuration not given here) | 4.5 | 0.31 | 1.16 | 3.8 | 0.96
18 | C=C(CC(NC(=O)c1ccc(CCc2cnc3nc(N)nc(N)c3n2)cc1)C(=O)O)C(=O)O (centres undefined) | 3.78 | 0.7 | 3.08 | 8.2 | –

Row | SMILES | MRT [h] | Vd [L/kg] | clearance [mL/min/kg] | half-life [h] | fraction unbound
19 | CN1C[C@H](CNC(=O)OCc2ccccc2)C[C@@H]2c3cccc4c3c(cn4C)C[C@H]21 | 1 | 0.57 | 9.6 | 0.93 | –
20 | COc1cccc(OC)c1C(=O)NC1C(=O)N2C(C(=O)O)C(C)(C)S[C@H]12 (some centres undefined) | 0.8 | 0.32 | 6.6 | 0.64 | 0.43
21 | C[C@]12C[C@]3(O)O[C@@H](O1)[C@@]1(COC(=O)c4ccccc4)[C@@H]3C[C@]12O[C@@H]1O[C@H](CO)[C@@H](O)[C@H](O)[C@H]1O | – | – | – | – | 0.77
22 | Nc1nc(=O)c2c([nH]1)NCC(CNc1ccc(C(=O)NC(CCC(=O)O)C(=O)O)cc1)N2C=O (centres undefined) | 0.8 | 0.25 | 5.8 | 1.3 | –
23 | Cc1nnc(C(C)C)n1C1C[C@H]2CC[C@@H](C1)N2CC[C@@H](NC(=O)C1CCC(F)(F)CC1)c1ccccc1 (some centres undefined) | 4.2 | – | – | 12.8 | –
24 | CCOCCO[C@@H]1CC[C@@H](C[C@@H](C)[C@@H]2CC(=O)C(C)=CC(C)[C@@H](O)C(OC)C(=O)C(C)C[C@H](C)/C=C/C=C/C=C(\C)[C@@H](OC)C[C@@H]3CC[C@@H](C)[C@@](O)(O3)C(=O)C(=O)N3CCCCC3C(=O)O2)C[C@H]1OC (some centres undefined) | 60.9 | 44.5 | 12.2 | 93.9 | –
25 | COc1ccc2c(c1)[C@@H]1C[C@]1(C(=O)N1[C@@H]3CC[C@H]1CN(C)C3)Cn1c-2c(C2CCCCC2)c2ccc(C(=O)NS(=O)(=O)N(C)C)cc21 | 6.38 | 0.5 | 1.33 | 5.38 | 0.01
26 | CN(C)C(=N)NC(=N)N | 1.4 | 0.64 | 7.4 | 1.7 | –
27 | CC(C)NC[C@H](O)COc1ccc(O)cc1 | 3.23 | 4.28 | 22.1 | 2.85 | –
28 | CCc1ccc(Cc2ccc3c(c2)[C@]2(OC3)O[C@H](CO)[C@@H](O)[C@H](O)[C@H]2O)cc1 | 5.1 | 0.63 | 2.07 | 4.7 | 0.46
29 | CC1(C)C(\C=C/C=C/C=C/C=C2\N(CCCCS(=O)(=O)O)c3ccc4ccccc4c3C2(C)C)=[N+](CCCCS(=O)(=O)[O-])c2ccc3ccccc3c21 | 0.086 | 0.035 | 6.8 | 0.065 | 0.05
30 | Cc1cc(OC[C@H](O)CNC(C)C)c(C)c(C)c1O | 3.7 | 3.6 | 16.2 | 3.1 | –
31 | COc1ccc(-n2nc(C(N)=O)c3c2C(=O)N(c2ccc(N4CCCCC4=O)cc2)CC3)cc1 | – | 0.3 | 0.8 | 12 | –
32 | O=C(/C=C/c1ccc(O)c(O)c1)O[C@@H]1C[C@](O)(C(=O)O)C[C@@H](OC(=O)/C=C/c2ccc(O)c(O)c2)[C@H]1O | 1.05 | 4.82 | 75.8 | 3.17 | –
33 | CCN(CC)CCNc1ccc(CNC=O)c2sc3ccc(OC)cc3c(=O)c12 | 5.4 | 1.01 | 3.1 | 6.19 | –
34 | OC(CCN1CCCC1)(c1ccccc1)C1CCCCC1 (centres undefined) | 14 | 0.74 | 0.86 | 12 | –
35 | COC(=O)Nc1nc2cc(C(=O)c3ccccc3)ccc2[nH]1 | 1.3 | 1.2 | 15 | 1.1 | –
